From patent US20160137630A1, “INDUCTION OF GATA2 BY HDAC1 AND HDAC2 INHIBITORS” (ACETYLON PHARMACEUTICALS, INC., priority 2014, published 2016)

What was measured:
HbG mRNA [1] = assay: % HbG mRNA induction in 2-phase culture systems CS1 and CS2; assay type: cell-based, human
From the text: Then, the cells were differentiated by exposure to either vehicle (control) or Compound 001. RNA samples of HbG were taken at days 0, 3, 5, and 8. […] Staining cells with a FITC-conjugated anti-HbF antibody and flow cytometry was used to measure induction of fetal hemoglobin.

[2] = test system: BFU-E colonies derived from human bone marrow mononuclear cells; assay: % HbG mRNA in BFU-E colonies; assay type: cell-based; details: FIG. 18A
From the text: Increases in % HbG resulting from HDAC1/2 inhibition were due to increased HbG and decreased HbB (FIGS. 18B, 21D and 21E).

Gata2 regulatory regions = assay: Gata2 ChIP-seq at the Gata2 locus; assay type: cell-based; details: −1.8 kb region
From the text: As above, differentiation profiles of compound treated cells were highly similar to control cells (FIG. 23A). It was observed that Gata2 occupancy at the Gata2 locus is tightly correlated between K562 and primary erythroid progenitors. In both cases, binding was limited to the +9.5, −1.8, −2.8, and −3.9 kb regulatory regions (data not shown).

HbD promoter = assay: Gata2 binding at the β-like globin gene cluster (ChIP-seq, ChIP-QPCR); assay type: cell-based
From the text: The tight temporal correlation between Gata2 and HbG activation following HDAC1/2 inhibition argues that Gata2 may affect the beta-globin locus directly. […] In FIG. 8C, the ChIP-seq results in FIG. 8A were validated in a second experimental series using QRT-PCR and two primer sets directed to the delta globin promoter. A primer set at the beta globin promoter was used as a control. […] This region is suspected in playing a role in switching from fetal to adult globin during development, as naturally occurring deletions of this region are associated with elevated fetal hemoglobin in adults (Sankaran V G, Xu J, Byron R, et al. A functional element necessary for fetal hemoglobin silencing. The New England journal of medicine. 2011; 365(9):807-814.).
To investigate this possibility, the β-like globin gene cluster was looked at in the Gata2 ChIP-seq data described above.

HbE mRNA = HbE mRNA levels in peripheral blood of rats; assay type: in vivo; details: rat, 10 and 30 mg/kg; FIG. 27A-B
Protocol: I. A. Rats were dosed once daily by oral gavage for 6 consecutive days at 0 mg/kg, 10 mg/kg, or 30 mg/kg per dose (See FIG. 25A). Dosing days are indicated by a down arrow (FIG. 25A). Peripheral blood was drawn on the indicated days and analyzed for drug level in plasma (PK), complete blood counts (CBC), or isolation of total ribonucleic acid (RNA). […] For each individual rat, HbE mRNA was expressed relative to HbB mRNA and then normalized to their predose level (time=day 0). Points are the average of n=4 animals with error bars showing the standard deviation (FIG. 27A).

HbG mRNA [3] = assay: HbG mRNA levels in peripheral blood of monkeys; assay type: in vivo, cynomolgus monkey; details: monkey, 25 and 75 mg/kg; FIG. 27C-D
Protocol: B. Cynomolgus monkey were dosed once daily by oral gavage for 5 consecutive days at 0 mg/kg, 25 mg/kg, or 75 mg/kg per dose (FIG. 25B). Sampling as described in ‘A’.
For each individual monkey, HbG mRNA was expressed relative to HbB mRNA and then normalized to their predose level (time=day 0). Points are the median of n=3 animals with error bars showing the range.

SMILES: Nc1ccc(-c2cccs2)cc1NC(=O)c1ccc2nc(N3CCNCC3)ccc2c1 [Compound 001, N-(2-amino-5-(thiophen-2-yl)phenyl)-2-(piperazin-1-yl)quinoline-6-carboxamide]
- % HbG (HbG mRNA [1]; 1 μM, increased from 10%): 46%
- induction in % HbG (HbG mRNA [1]; differentiation phase, both culture systems, FIG. 10B, 21A-C): dose- and time-dependent induction
- % HbG [2]: increased % HbG in a dose-dependent manner
- maximum increase in Gata2 binding (peak height) (Gata2 regulatory regions): 3 fold
- increase in Gata2 binding at the HbD promoter region (HbD promoter; ChIP-seq): 1.8 fold
- increase in Gata2 binding at the HbD promoter (HbD promoter; independent ChIP-QPCR experiment): 2 fold
- HbE mRNA relative to HbB mRNA, normalized to predose (HbE mRNA): dose-dependent increase
- HbG mRNA relative to HbB mRNA, normalized to predose (HbG mRNA [3]): dose-dependent increase
